In patent publication US11116760B2 (Gilead Sciences, Inc., priority 2018, dated 2021):
pEC50: −log10 of the molar value.

Target: α4β7 integrin (Homo sapiens (Human), UniProt P13612+P26010)
Experiment: α4β7 Integrin Cell Capture Assay
Format: cell-based
[1] = Table 1, capture of α4β7 expressing RPM18866 cells on MadCAM-1 extracellular domain-coated plate
[2] = RPMI8866 cells captured on MadCAM-1 extracellular domain-coated plate
[3] = Table 2, capture of α4β7 expressing RPM18866 cells on MadCAM-1 extracellular domain-coated plate

Sequence of α4β7 integrin (P13612 34-1032): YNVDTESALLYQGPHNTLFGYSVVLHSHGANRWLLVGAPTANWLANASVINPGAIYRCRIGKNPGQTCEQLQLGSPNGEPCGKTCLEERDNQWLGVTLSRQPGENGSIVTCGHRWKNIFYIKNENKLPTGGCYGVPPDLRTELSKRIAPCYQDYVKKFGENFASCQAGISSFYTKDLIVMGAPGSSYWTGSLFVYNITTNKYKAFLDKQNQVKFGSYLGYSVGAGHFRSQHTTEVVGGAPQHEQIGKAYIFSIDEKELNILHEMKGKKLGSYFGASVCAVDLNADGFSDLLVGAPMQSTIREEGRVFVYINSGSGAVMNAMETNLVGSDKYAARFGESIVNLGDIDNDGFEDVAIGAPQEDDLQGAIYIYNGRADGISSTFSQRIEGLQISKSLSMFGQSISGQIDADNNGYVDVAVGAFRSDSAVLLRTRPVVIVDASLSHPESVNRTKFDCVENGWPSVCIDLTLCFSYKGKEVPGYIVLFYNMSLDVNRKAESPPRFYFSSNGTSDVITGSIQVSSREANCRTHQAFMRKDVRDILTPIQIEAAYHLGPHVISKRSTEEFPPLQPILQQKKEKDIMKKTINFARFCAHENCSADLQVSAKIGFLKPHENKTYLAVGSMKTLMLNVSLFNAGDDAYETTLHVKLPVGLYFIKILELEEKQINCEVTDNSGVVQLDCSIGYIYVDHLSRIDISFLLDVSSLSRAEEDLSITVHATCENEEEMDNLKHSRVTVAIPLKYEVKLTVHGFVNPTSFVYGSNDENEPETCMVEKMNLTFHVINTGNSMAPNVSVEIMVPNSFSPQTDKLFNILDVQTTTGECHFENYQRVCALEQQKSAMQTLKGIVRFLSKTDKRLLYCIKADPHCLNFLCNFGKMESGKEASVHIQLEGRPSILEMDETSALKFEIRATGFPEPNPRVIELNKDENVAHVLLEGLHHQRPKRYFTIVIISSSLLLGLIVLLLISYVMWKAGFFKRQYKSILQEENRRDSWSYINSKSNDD
Sequence of α4β7 integrin (P26010 20-798): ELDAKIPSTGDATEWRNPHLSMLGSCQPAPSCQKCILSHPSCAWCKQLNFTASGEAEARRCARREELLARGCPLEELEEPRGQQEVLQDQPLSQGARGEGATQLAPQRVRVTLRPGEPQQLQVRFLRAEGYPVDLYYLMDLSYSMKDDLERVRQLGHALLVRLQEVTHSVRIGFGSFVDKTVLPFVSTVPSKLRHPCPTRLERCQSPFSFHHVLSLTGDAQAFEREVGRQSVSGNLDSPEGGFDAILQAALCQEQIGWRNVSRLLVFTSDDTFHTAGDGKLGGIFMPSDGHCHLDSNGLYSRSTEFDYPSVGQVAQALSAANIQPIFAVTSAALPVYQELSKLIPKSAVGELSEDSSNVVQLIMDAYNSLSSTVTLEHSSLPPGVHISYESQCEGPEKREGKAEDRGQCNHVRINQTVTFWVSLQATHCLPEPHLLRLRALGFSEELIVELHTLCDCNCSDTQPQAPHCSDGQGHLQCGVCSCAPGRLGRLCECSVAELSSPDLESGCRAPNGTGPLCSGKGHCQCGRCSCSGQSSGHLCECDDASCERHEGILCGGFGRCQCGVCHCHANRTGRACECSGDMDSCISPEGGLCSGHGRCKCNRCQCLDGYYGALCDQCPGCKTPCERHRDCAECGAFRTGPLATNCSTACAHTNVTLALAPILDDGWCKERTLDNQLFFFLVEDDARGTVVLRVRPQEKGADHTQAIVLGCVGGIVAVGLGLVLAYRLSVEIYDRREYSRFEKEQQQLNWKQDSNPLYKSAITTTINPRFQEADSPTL

Compound | pEC50 [1] | pEC50 [3] | other results
N#Cc1ccccc1-c1ccc(C[C@H](NC(=O)c2c(F)cc(NS(=O)(=O)c3ccc(-c4ccnc(F)c4)cc3)cc2F)C(=O)O)c2cccnc12 [Example 59, (S)-3-(8-(2-cyanophenyl)quinolin-5-yl)-2-(2,6-difluoro-4-((4-(2-fluoropyridin-4-yl)phenyl)sulfonamido)benzamido)propanoic acid] | 8.49 |  | 
Cc1cc(N2CCOC[C@@H]2C(F)(F)F)cc(F)c1C(=O)N[C@@H](Cc1cc(F)c(-n2c(=O)c3ccncc3n(C)c2=O)c2ncccc12)C(=O)O [Example 433] |  |  | pEC50 [2]: 10.12
N#Cc1ccc(-c2ccc(C[C@H](NC(=O)c3c(F)cc(NS(=O)(=O)c4ccccc4)cc3F)C(=O)O)c3cccnc23)c(Cl)c1 [Example 46, (S)-3-(8-(2-chloro-4-cyanophenyl)quinolin-5-yl)-2-(2,6-difluoro-4-(phenylsulfonamido)benzamido)propanoic acid] | 7.70 |  | 
N#Cc1ccc(-c2ccc(C[C@H](NC(=O)c3c(F)cc(C4=CCOCC4)cc3F)C(=O)O)c3cccnc23)c(Cl)c1 [Example 150] |  | 7.36 | 
Cc1cc(N2CCOC[C@@H]2C(F)(F)F)cc(F)c1C(=O)N[C@@H](Cc1ccc(-c2c(C(F)(F)F)nc(C)n(C)c2=O)c2ncccc12)C(=O)O [Example 458] |  |  | pEC50 [2]: 10.05
Cc1cc(N2CCOC[C@@H]2C(F)(F)F)cc(Cl)c1C(=O)N[C@@H](Cc1ccc(-c2c(C(F)(F)F)cc(C)n(C)c2=O)c2ncccc12)C(=O)O [Example 160] |  | 9.52 | 
N#Cc1ccc(-c2ccc(C[C@H](NC(=O)c3c(F)cc(N4CCNC[C@@H]4C(F)(F)F)cc3F)C(=O)O)c3cccnc23)c(Cl)c1 [Example 77, (S)-3-(8-(2-chloro-4-cyanophenyl)quinolin-5-yl)-2-(2,6-difluoro-4-((R)-2-(trifluoromethyl)piperazin-1-yl)benzamido)propanoic acid] | 7.04 |  | 
Cc1cc(N2CCOC[C@@H]2C(F)(F)F)cc(F)c1C(=O)N[C@@H](Cc1ccc(-n2c(=O)c3cc(F)ncc3n(C)c2=O)c2ncccc12)C(=O)O [Example 420] |  |  | pEC50 [2]: 9.94
CCOCc1cc(OC)c(-c2ccc(C[C@H](NC(=O)c3c(F)cc(C#N)cc3F)C(=O)O)c3cccnc23)c(OC)c1 [Example 42, (S)-2-(4-cyano-2,6-difluorobenzamido)-3-(8-(4-(ethoxymethyl)-2,6-dimethoxyphenyl)quinolin-5-yl)propanoic acid] | 7.87 |  | 
CC[C@@H](Nc1cc(F)c(C(=O)N[C@@H](Cc2ccc(-c3cc(OC)cn(C)c3=O)c3ncccc23)C(=O)O)c(F)c1)C(F)(F)F [Example 481] |  |  | pEC50 [2]: 8.83
Cc1cc(N2CCOC[C@@H]2C(F)(F)F)cc(F)c1C(=O)N[C@@H](Cc1ccc(-n2c(=O)c3c(n(C)c2=O)CCOC3)c2ncccc12)C(=O)O [Example 412] |  |  | pEC50 [2]: 10.04
O=C(N[C@@H](Cc1ccc(-c2ncc3ccccc3c2C(F)(F)F)c2ncc(F)cc12)C(=O)O)c1c(Cl)cccc1Cl [Example 35, (S)-2-(2,6-dichlorobenzamido)-3-(3-fluoro-8-(4-(trifluoromethyl)isoquinolin-3-yl)quinolin-5-yl)propanoic acid] | 8.21 |  | 
CC[C@@H](Nc1cc(C)c(C(=O)N[C@@H](Cc2ccc(-n3c(=O)c4ccncc4n(C)c3=O)c3ncccc23)C(=O)O)c(F)c1)C(F)(F)F [Example 439] |  |  | pEC50 [2]: 10.31
O=C(N[C@@H](Cc1ccc(Oc2nccc3ccccc23)c2ncccc12)C(=O)O)c1c(Cl)cccc1Cl [Example 157] |  | 7.36 | 
CC(C)(O)C#Cc1cc(Cl)c(C(=O)N[C@@H](Cc2ccc(-c3ccc(C#N)cc3Cl)c3ncccc23)C(=O)O)c(Cl)c1 [Example 29, (S)-3-(8-(2-chloro-4-cyanophenyl)quinolin-5-yl)-2-(2,6-dichloro-4-(3-hydroxy-3-methylbut-1-yn-1-yl)benzamido)propanoic acid] | 7.16 |  | 
COc1cc(C)n(C)c(=O)c1-c1ccc(C[C@H](NC(=O)c2c(F)cc(N3CCOC[C@@H]3C(F)(F)F)cc2F)C(=O)O)c2cccnc12 [Example 102, (S)-2-(2,6-difluoro-4-((R)-3-(trifluoromethyl)morpholino)benzamido)-3-(8-(4-methoxy-1,6-dimethyl-2-oxo-1,2-dihydropyridin-3-yl)quinolin-5-yl)propanoic acid] | 9.52 |  | 
COc1cccc(C)c1-c1ccc(C[C@H](NC(=O)c2c(F)cc(NS(=O)(=O)c3ccc(-c4ccnc(F)c4)cc3)cc2F)C(=O)O)c2cccnc12 [Example 64, (2S)-2-(2,6-difluoro-4-((4-(2-fluoropyridin-4-yl)phenyl)sulfonamido)benzamido)-3-(8-(2-methoxy-6-methylphenyl)quinolin-5-yl)propanoic acid] | 9.10 |  | 
Cn1c(=O)n(-c2ccc(C[C@H](NC(=O)c3c(F)cc(N4CCOC[C@@H]4C(F)(F)F)cc3F)C(=O)O)c3cccnc23)c(=O)c2cc(F)c(F)cc21 [Example 422] |  |  | pEC50 [2]: 9.64
(S)-3-(8-(2-chloro-4-cyanophenyl)quinolin-5-yl)-2-(2,6-difluoro-4-((phenoxycarbonyl)amino)benzamido)propanoic acid [Example 41] | 8.11 |  | 
Cc1cc(C(F)(F)F)c(-c2ccc(C[C@H](NC(=O)c3c(F)cc(N4CCOC[C@@H]4C(F)(F)F)cc3F)C(=O)O)c3cccnc23)nc1C [Example 94, (S)-2-(2,6-difluoro-4-((R)-3-(trifluoromethyl)morpholino)benzamido)-3-(8-(5,6-dimethyl-3-(trifluoromethyl)pyridin-2-yl)quinolin-5-yl)propanoic acid] | 9.30 |  | 
Cn1c(=O)c(-c2ccc(C[C@H](NC(=O)c3c(F)cccc3F)C(=O)O)c3cccnc23)cc2ccccc21 [Example 14, (S)-2-(2,6-difluorobenzamido)-3-(1-methyl-2-oxo-1,2-dihydro-[3,8′-biquinolin]-5′-yl)propanoic acid] | 8.43 |  | 
CCOCc1cc(OC)c(-c2c(F)cc(C[C@H](NC(=O)c3c(F)cccc3F)C(=O)O)c3cccnc23)c(OC)c1 [Example 40, (S)-2-(2,6-difluorobenzamido)-3-(8-(4-(ethoxymethyl)-2,6-dimethoxyphenyl)-7-fluoroquinolin-5-yl)propanoic acid] | 8.07 |  | 
Cn1c(=O)c(-c2ccc(C[C@H](NC(=O)c3c(F)cc(N4CCOC[C@@H]4C(F)(F)F)cc3F)C(=O)O)c3cccnc23)nc2ccccc21 [Example 484] |  |  | pEC50 [2]: 9.84
CCOCc1cc(OC)c(-c2ccc(C[C@H](NC(=O)c3c(F)cccc3F)C(=O)O)c3cc(C(F)(F)F)cnc23)c(OC)c1 [Example 37, (S)-2-(2,6-difluorobenzamido)-3-(8-(4-(ethoxymethyl)-2,6-dimethoxyphenyl)-3-(trifluoromethyl)quinolin-5-yl)propanoic acid] | 7.16 |  | 
Cc1c(Cl)cn(C)c(=O)c1-c1ccc(C[C@H](NC(=O)c2c(F)cc(N3CCOC[C@@H]3C(F)(F)F)cc2F)C(=O)O)c2cccnc12 [Example 165] |  | 9.40 | 

Now from value to compound, other results behind:

pEC50 [1] | pEC50 [3] | Compound | other results
 | 7.24 | N#Cc1ccc(-c2ccc(C[C@H](NC(=O)c3c(Cl)cc4cc(C5CC5)[nH]c4c3Cl)C(=O)O)c3cccnc23)c(Cl)c1 [Example 228] | 
 | 7.72 | N#Cc1ccc(-c2ccc(C[C@H](NC(=O)c3c(F)cc(NC(c4ccccc4)C(F)F)cc3F)C(=O)O)c3cccnc23)c(Cl)c1 (stereo partly drawn) [Example 326] | 
 | 8.51 | Cc1cc(C(F)(F)F)c(-c2ccc(C[C@H](NC(=O)c3c(F)cc(N4CCOC[C@H]4CC(F)F)cc3F)C(=O)O)c3cccnc23)c(=O)n1C [Example 250] | 
 | 8.10 | Cc1cc(C(F)(F)F)c(-c2ccc(C[C@H](NC(=O)c3c(F)cc(N4CC[C@H]4C(F)(F)F)cc3F)C(=O)O)c3cccnc23)c(=O)n1C [Example 298] | 
 | 7.62 | N#Cc1ccc(-c2ccc(C[C@H](NC(=O)c3c(F)cc(N[C@H](C4CCC4)C(F)(F)F)cc3F)C(=O)O)c3cccnc23)c(Cl)c1 [Example 333] | 
 | 9.05 | Cc1cc(C(F)(F)F)c(-c2ccc(C[C@H](NC(=O)c3c(F)cc(N4CCOC[C@@H]4C)cc3F)C(=O)O)c3cccnc23)c(=O)n1C [Example 180] | 
 | 8.24 | C[C@@H](Nc1cc(F)c(C(=O)N[C@@H](Cc2ccc(-c3c(Cl)cc(C#N)cc3Cl)c3ncccc23)C(=O)O)c(F)c1)C(F)(F)F [Example 288] | 
 | 9.15 | Cc1cc(C)n(C)c(=O)c1-c1ccc(C[C@H](NC(=O)c2c(F)cc(N[C@H](C3CC3)C(F)(F)F)cc2F)C(=O)O)c2cccnc12 [Example 342] | 
 | 8.13 | CC[C@@H](Nc1cc(F)c(C(=O)N[C@@H](Cc2ccc(-c3nc(C)c(C)nc3C)c3ncccc23)C(=O)O)c(F)c1)C(F)(F)F [Example 295] | 
 | 8.72 | CC[C@@H](Nc1cc(F)c(C(=O)N[C@@H](Cc2ccc(-c3cc(C(F)(F)F)cn(C)c3=O)c3ncccc23)C(=O)O)c(F)c1)C(F)(F)F [Example 210] | 
 | 7.46 | N#Cc1ccc(-c2ccc(C[C@H](NC(=O)c3c(Cl)cc4[nH]ccc4c3Cl)C(=O)O)c3cccnc23)c(Cl)c1 [Example 246] | 
 | 8.40 | Cc1ccnc(-c2ccc(C[C@H](NC(=O)c3c(F)cc(N4CCOC[C@@H]4C(F)(F)F)cc3F)C(=O)O)c3cccnc23)n1 [Example 263] | 
 | 8.74 | CC[C@@H](Nc1cc(F)c(C(=O)N[C@@H](Cc2ccc(-c3nc(N)ccc3C(F)(F)F)c3ncccc23)C(=O)O)c(F)c1)C(F)(F)F [Example 208] | 
 | 8.31 | CC[C@@H](Nc1cc(F)c(C(=O)N[C@@H](Cc2ccc(-c3ncc4ccccc4c3C(F)(F)F)c3ncccc23)C(=O)O)c(F)c1)C(F)(F)F [Example 276] | 
 | 8.82 | CC[C@@H](Nc1cc(F)c(C(=O)N[C@@H](Cc2ccc(-c3c(C)c(F)cn(C)c3=O)c3ncccc23)C(=O)O)c(F)c1)C(F)(F)F [Example 199] | 
 | 8.89 | Cc1cc(C(F)(F)F)c(-c2ccc(C[C@H](NC(=O)c3c(F)cc(N4C[C@@H](C)OC[C@@H]4C)cc3F)C(=O)O)c3cccnc23)c(=O)n1C [Example 191] | 
 | 8.52 | Cc1cc(C(F)(F)F)c(-c2ccc(C[C@H](NC(=O)c3c(F)cc(N4C[C@@H](C)OC[C@H]4C)cc3F)C(=O)O)c3cccnc23)c(=O)n1C [Example 249] | 
